# Data taken from PMC4155245, “Clostridium difficile has a single sortase, SrtB, that can be inhibited by small-molecule inhibitors” (BMC Microbiology, 2014).
# Where two headings read alike, the source gives them in different places.
# Target: T1, SrtB (sortase B, CD630_27180) (Clostridioides difficile, UniProt Q183F3)
# T1 construct: SrtBΔN26 (N-terminal transmembrane residues 2–25 replaced with a six-histidine tag)
# Experiment: FRET peptide cleavage assay (d-PVPPKTGDS-e) with purified recombinant SrtBΔN26
# Format: biochemical
# T1 sequence (Q183F3 entry or part of it): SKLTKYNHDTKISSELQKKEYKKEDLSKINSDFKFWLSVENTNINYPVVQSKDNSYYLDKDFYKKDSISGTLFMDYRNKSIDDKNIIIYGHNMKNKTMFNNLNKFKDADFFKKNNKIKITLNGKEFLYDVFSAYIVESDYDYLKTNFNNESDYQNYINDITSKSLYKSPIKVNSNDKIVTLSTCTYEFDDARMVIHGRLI
molecule,measurement,setting,value
LSHTM-0052 [LSHTM52],IC50,read-out: IC50,44.1 ± 6.9 µM
LSHTM-0040 [LSHTM40],IC50,read-out: IC50,63.1 ± 8.8 µM
LSHTM-0050 [LSHTM50],IC50,read-out: IC50,60.1 ± 4.7 µM
"C[N+](C)(C)CCSS(C)(=O)=O [MTSET, 2-(trimethylamonium)ethylmethanethiosulfonate]",IC50,,287 ± 16.6 µM
